The numbers were not newly measured in article PMC7153166 (Elektrophysiologie, 2018), which cites them from elsewhere.

Holding throughout (format): cell-based
Data set [1] deals with 3a-Protein (Severe acute respiratory syndrome-related coronavirus, UniProt P59632).
Data set [2] has as its target T1, P2X2-Rezeptor (Rattus norvegicus, UniProt P49653).
T1 sequence (P49653 1-472): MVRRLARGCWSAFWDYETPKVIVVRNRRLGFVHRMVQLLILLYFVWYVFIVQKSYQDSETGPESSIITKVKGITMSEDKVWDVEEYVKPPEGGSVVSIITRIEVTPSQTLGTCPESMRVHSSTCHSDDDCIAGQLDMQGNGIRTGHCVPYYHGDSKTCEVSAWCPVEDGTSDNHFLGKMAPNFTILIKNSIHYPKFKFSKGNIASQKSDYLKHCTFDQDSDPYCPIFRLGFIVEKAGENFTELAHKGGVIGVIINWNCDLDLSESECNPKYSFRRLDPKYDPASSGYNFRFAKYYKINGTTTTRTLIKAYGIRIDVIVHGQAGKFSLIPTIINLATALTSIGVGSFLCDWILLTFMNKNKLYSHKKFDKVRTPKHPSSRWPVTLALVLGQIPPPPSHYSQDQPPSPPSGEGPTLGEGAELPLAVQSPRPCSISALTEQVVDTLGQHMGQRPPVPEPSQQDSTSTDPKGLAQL
The data set is described as follows: two-electrode voltage clamp, Xenopus oocytes. The following applies: agonist. On the technique in general: In two-electrode clamp one electrode senses voltage and the other passes current.

Data set [3] concerns the target T2, P2X1-Rezeptor (Rattus norvegicus, UniProt P47824).
T2 sequence (P47824 1-399): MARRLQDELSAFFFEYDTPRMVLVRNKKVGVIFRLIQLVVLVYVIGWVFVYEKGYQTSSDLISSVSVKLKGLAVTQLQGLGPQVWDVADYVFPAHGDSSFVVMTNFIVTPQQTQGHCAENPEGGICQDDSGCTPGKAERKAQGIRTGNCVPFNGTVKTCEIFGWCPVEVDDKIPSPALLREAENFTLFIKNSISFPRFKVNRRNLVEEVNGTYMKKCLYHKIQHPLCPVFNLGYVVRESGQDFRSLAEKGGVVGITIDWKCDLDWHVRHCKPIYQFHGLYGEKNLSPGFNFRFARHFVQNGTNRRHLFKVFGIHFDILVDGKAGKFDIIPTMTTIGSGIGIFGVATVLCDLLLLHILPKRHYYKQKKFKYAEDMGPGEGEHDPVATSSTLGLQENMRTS
The experiment in a line: two-electrode voltage clamp, Xenopus oocytes.

Chain of 3a-Protein (P59632 whole entry, looked up): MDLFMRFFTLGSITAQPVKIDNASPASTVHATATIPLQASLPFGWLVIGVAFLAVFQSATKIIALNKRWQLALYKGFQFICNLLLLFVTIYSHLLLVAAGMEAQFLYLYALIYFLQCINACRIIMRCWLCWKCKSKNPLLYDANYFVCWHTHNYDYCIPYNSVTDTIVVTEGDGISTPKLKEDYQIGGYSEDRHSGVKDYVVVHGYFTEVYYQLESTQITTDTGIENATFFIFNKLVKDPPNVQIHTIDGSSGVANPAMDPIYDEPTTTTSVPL

With `O=c1c(O[C@@H]2O[C@@H](CO)[C@H](O)[C@H]2O)c(-c2ccc(O)cc2)oc2cc(O)cc(O)c12` [Juglanin], the IC50 in data set [1] was ~2 µM.
Regarding `Cc1cc(O)c2c(c1)C(=O)c1cc(O)cc(O)c1C2=O` [Emodin, 1,3,8-Trihydroxcy-6-methylanthracen-9,10-dion], in data set [1], the IC50 is 20 µM.
For the molecule `Nc1ncnc2c1ncn2[C@@H]1O[C@H](COP(=O)(O)OP(=O)(O)OP(=O)(O)O)[C@@H](O)[C@H]1O` [ATP], the EC50 in data set [2] is ~30 µM; in data set [3], 0.6 µM.

For orientation: IC50 means the concentration needed to halve the response being measured. In general, EC50 refers to the concentration that produces a half-maximal response.
